“Also recorded” adds a separate entry of the source. Bridge positions count the residues as written; N and C are the ends. Ends that are not written are not given here.
Columns and labels:
[1] = target: T1, hNav1.7 (Homo sapiens, UniProt Q15858); test: Whole-cell patch clamp, hNav1.7 in HEK293T cells; format: cell-based
T1 construct: expressed in transfected cells; host or cells: HEK293T cells, transient transfection (Lipofectamine-2000)
Description: Figure 4 Effects of ISTX-I expressed in HEK293 cells. Current traces were evoked with a 50ms step depolarization to −10 mV from a holding potential of −80 mV every 5s. […] (E) Steady-state inactivation of the hNav1.7 channel before (solid circles) and after (open circles) the application of 10 μM ISTX-I (n = 5).
The effects of ISTX-I on the activation and inactivation kinetics of hNav1.7 were also analyzed. The current-voltage relationships were determined for Nav1.7 channels using step depolarization ranging from −80 to +40 mV from a holding potential of −80 mV.
HEK293T (human embryonic kidney) cells were grown in DMEM containing 10% heat-inactivated FBS at 37 °C in a 5% CO2 incubator. The cDNA genes encoding human (h)Nav1.1, (h)Nav1.2, (h)Nav1.3, (h)Nav1.4, (h)Nav1.5, (h)Nav1.6 and (h)Nav1.7 were transiently transfected into HEK293T cells for electrophysiology using Lipofectamine-2000 (Invitrogen) in serum-reduced medium (Opti-MEM, Invitrogen) following the manufacturer’s instructions. The auxiliary subunits hβ1 and enhanced green florescent protein plasmids were cotransfected into HEK293T cells to increase the current density and efficiently select cells with green florescent protein for whole-cell patch-clamp recordings. After 12 h, the HEK293T cells were used for electrophysiological analysis.
(§1) DRG neurons with a large diameter (>[…]) and those with a relatively small diameter (<[…]) were chosen by measuring TTX-s and TTX-r currents, respectively. Meanwhile, TTX (final concentration at 100 nM) was used to separate TTX-r sodium currents from TTX-s sodium currents. Suction pipettes (2.0–4.0 MΩ) were made of borosilicate glass capillary tubes with two-step pulling on a vertical micropipette puller (PC-10, Narishige). Potassium, calcium, and sodium currents were recorded in experimental cells using whole-cell patch-clamp recordings at room temperature, which were performed with an HEK EPC10 patch-clamp amplifier. The P/4 protocol was used to subtract linear capacitive and leakage currents. Experimental data were acquired and analyzed using the programs patch master and Sigmaplot 9.0 (Sigma, USA). All of the data points represent the mean ± SE (n = the number of separate experimental cells examined). Dose-response curves were fitted using the following Hill logistic equation: y = 1 − (1 − fmax)/[1 + ([Tx]/IC50)^n] in which n is an empirical Hill coefficient and fmax is the fraction of current resistant to inhibition at high toxin (Tx) concentrations.
(§2) Electrophysiological studies.
Currents were recorded from experimental cells using whole-cell patch clamptechnique at room temperature (22–25 °C). The patch pipettes were fabricated from borosilicate glass tubing using a two-stage vertical microelectrode puller (PC-10, Narishige, Japan). […]

[2] = test system: TTX-s sodium channel; test: Whole-cell patch clamp, TTX-s sodium currents in rat DRG neurons; format: cell-based
Description: The effects of ISTX-I on voltage-gated ion channels were investigated in the dorsal root ganglion (DRG). DRG neurons were held at −80 mV for over 4 min to allow adequate equilibration between the micropipette solution and the cell interior, and then current traces were evoked using a 50 ms step depolarization to −10 mV every second.
Figure 3 Effects of ISTX-I on voltage-gated ion channels in rat DRG neurons. […] (C) Dose-dependent inhibition of ISTX-I on the TTX-s Nav channel (n = 5). (D) Current-voltage (I-V) relationship for the TTX-s Nav channel currents before (solid circles) and after (open circles) the application of 5 μM ISTX-I (n = 5). (E) Conductance–voltage (G-V) relationship of the TTX-s Nav channel before (solid circles) and after (open circles) treatment with 5 μM ISTX-I (n = 5). (F) Steady-state inactivation of the TTX-s Nav channel currents before (solid circles) and after(open circles) the application of 10 μM ISTX-I (n = 5).
Rat DRG cells were acutely dissociated from adult Sprague-Dawley rats[30]. Briefly, adult rats of either sex with body weights of approximately 200 g were killed by decapitation. The dorsal root ganglia were isolated quickly from the spinal cord and then transferred into Dulbecco’s modified Eagle’s medium (DMEM) containing trypsin I (0.15 mg/mL) and collagenase II (0.3 mg/mL) for incubation with an oscillation frequency of 200 rpm at 37 °C for 20 min. The trypsin inhibitor II-S (1 mg/mL) was added to terminate the reaction. The isolated DRG cells were split into 35 mm culture dishes with DMEM solution containing 10% fetal bovine serum (FBS) and were incubated in a CO2 incubator (5% CO2, 95% air, 37 °C) for 1–4 h before the patch-clamp experiment.
as §1, §2
Currents were recorded from experimental cells using whole-cell patch clamptechnique at room temperature (22–25 °C). The patch pipettes were fabricated from borosilicate glass tubing using a two-stage vertical microelectrode puller (PC-10, Narishige, Japan). After establishing the whole-cell recording configuration, the resting potential was held at −80 mV for at least 5 min to allow adequate equilibration between the micropipette solution and the cell interior. The micropipette solution of sodium currents for dorsal root ganglion neurons contained (in mM): 105 […]
Ionic currents were filtered at 3 kHz and sampled at 20 kHz on EPC-9 patch clamp amplifier (HEKA, Lambrecht, Germany).
Supplementary Figure legends
Figure S1. Expression, purification and molecular mass determination of recombinant ISTX-I. A: Separation of ISTX-I by Sephadex G-50 gel filtration. […]
protein molecular weight marker; lanes1&2, ISTX-I/pET-32a(+) uninduced and induced cells, respectively. B: The protein peak (indicated by an arrow) from […]

[3] = 5 μM ISTX-I, step depolarization from −80 to +40 mV, holding −80 mV

T1 sequence (Q15858 whole entry): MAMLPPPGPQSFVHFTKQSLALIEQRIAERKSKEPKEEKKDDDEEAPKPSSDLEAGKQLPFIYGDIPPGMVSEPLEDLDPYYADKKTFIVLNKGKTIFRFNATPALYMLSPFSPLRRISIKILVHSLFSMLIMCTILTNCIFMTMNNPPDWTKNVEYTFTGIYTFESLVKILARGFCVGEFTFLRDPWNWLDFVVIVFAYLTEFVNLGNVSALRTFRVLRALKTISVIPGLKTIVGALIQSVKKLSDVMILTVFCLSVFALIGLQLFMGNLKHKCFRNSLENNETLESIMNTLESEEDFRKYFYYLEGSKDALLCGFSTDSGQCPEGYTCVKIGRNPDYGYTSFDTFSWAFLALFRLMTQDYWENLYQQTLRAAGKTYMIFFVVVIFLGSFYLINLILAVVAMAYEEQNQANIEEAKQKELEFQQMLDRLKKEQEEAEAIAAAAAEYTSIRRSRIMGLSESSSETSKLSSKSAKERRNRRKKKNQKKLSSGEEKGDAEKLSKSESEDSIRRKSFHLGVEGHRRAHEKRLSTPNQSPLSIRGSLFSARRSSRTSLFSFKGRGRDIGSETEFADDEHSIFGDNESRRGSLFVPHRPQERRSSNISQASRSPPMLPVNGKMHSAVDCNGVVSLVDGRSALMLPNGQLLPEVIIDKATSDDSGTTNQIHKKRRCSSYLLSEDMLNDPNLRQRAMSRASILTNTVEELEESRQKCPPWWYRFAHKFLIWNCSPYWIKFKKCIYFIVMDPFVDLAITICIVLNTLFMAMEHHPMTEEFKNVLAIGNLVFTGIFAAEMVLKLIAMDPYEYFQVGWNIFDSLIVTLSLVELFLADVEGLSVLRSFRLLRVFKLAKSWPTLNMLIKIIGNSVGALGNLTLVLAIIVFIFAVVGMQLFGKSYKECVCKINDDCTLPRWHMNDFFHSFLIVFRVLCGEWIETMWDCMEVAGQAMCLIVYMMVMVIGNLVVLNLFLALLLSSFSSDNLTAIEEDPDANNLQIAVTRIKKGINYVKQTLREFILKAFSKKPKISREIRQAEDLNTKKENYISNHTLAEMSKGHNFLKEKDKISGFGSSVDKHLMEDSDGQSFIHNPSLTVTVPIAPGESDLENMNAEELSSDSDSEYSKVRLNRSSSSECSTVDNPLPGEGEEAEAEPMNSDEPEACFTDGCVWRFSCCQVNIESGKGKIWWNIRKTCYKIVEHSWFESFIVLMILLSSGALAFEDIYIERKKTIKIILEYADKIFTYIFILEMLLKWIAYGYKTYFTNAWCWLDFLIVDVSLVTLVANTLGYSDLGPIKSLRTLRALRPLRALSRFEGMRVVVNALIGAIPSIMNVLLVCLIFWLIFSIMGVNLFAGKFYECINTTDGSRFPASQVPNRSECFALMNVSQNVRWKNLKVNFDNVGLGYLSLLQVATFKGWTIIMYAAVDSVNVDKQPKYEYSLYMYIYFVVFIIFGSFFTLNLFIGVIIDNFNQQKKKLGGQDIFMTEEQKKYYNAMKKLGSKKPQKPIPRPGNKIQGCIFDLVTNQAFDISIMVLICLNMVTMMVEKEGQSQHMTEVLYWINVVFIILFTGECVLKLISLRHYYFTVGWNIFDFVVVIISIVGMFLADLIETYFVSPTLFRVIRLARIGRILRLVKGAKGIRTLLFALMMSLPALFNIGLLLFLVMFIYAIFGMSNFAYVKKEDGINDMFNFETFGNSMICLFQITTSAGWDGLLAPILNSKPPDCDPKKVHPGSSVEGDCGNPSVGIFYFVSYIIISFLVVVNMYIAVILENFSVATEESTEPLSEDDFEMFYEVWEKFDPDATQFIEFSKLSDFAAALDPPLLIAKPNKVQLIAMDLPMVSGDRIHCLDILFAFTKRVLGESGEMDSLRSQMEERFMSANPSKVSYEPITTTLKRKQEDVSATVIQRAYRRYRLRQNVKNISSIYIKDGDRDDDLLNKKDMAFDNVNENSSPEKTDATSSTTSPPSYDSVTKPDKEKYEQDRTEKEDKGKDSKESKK
T1 sequence (Q07699 19-218, further chain): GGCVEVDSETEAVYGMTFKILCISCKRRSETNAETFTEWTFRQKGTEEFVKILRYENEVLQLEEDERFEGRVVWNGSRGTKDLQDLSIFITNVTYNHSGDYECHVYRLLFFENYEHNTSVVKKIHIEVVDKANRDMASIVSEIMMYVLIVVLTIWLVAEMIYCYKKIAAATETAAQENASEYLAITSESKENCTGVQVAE

LCSENGDCAADECCVDTVFEGDMVTRSCEKTTGNFTECPGLTPIA (disulfide 2-14, 8-28, 13-38) [ISTX-I]
effect on hNav1.7 channel currents ([1]; 1 μM ISTX-I, 50 ms step to −10 mV from −80 mV every 5 s): significantly depressed; also recorded: Inhibition of hNav1.7 | shift of conductance–voltage (G-V) curve [1, 3]: no effect; also recorded: did not shift | shift of current-voltage (I-V) curve [1, 3]: no effect; also recorded: did not shift | shift of steady-state inactivation curve ([1]; 10 μM ISTX-I, hNav1.7, n = 5): approximately −10 mV | effect on TTX-s sodium channels (summary) [2]: specifically inhibited TTX-s sodium channels | Inhibition of TTX-s Nav channel currents ([2]; 1 μM ISTX-I (legend of Fig. 3A)): Inhibition of TTX-s Nav channel currents | reduction of TTX-s sodium channel currents ([2]; 2 μM ISTX-I, 50 ms step depolarization to −10 mV, held at −80 mV, room temperature): approximately 50% | change of conductance–voltage (G-V) relationship ([2]; 5 μM ISTX-I, TTX-s, n = 5): No changes | shift of current–voltage (I-V) curve ([2]; 5 μM ISTX-I, TTX-s, n = 5): No changes | shift of steady-state inactivation curve, hyperpolarized direction ([2]; 10 μM ISTX-I, TTX-s, n = 5): approximately 11 mV | IC50 ([2]; Hill equation fit, 50 ms step to −10 mV from −80 mV, mean ± SE, n = 5): 2.5 ± 1.4 µM
